In PubChem BioAssay (NCI):
Several values for one entry are separate records, joined by “and”; a condition that tells them apart may be missing. Equal values may be shown once.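 The compound was tested at five concentrations on cells cultured in 96-well plates, with a 48-hour exposure period. GI50 is the concentration that inhibits growth by half. TGI: concentration producing complete growth inhibition.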

Assays:
Experiment in all cases: growth of human tumour cells (NCI), 48 h
KM20L2 colon = test system: KM20L2 colon
SNB-19 CNS = test system: SNB-19 CNS
HL-60(TB) leukemia = test system: HL-60(TB) leukemia
ACHN renal = test system: ACHN renal
M14 melanoma = test system: M14 melanoma
UACC-62 melanoma = test system: UACC-62 melanoma
T-47D breast = test system: T-47D breast
DU-145 prostate = test system: DU-145 prostate
MDA-MB-231 breast = test system: MDA-MB-231 breast
MDA-N = test system: MDA-N

CC[P+]1(c2ccccc2)CCCCC1
TGI (KM20L2 colon): > 100 µM
TGI (SNB-19 CNS): > 100 µM
TGI (HL-60(TB) leukemia): > 100 µM
TGI (ACHN renal): > 100 µM
TGI (M14 melanoma): > 100 µM
TGI (UACC-62 melanoma): > 100 µM

N#CC(C#N)=C1CCC2C(=C(C#N)C#N)CCC12 (centres undefined)
TGI (KM20L2 colon): > 100 µM
TGI (SNB-19 CNS): > 100 µM
TGI (HL-60(TB) leukemia): > 100 µM
TGI (M14 melanoma): > 100 µM
TGI (UACC-62 melanoma): > 100 µM

COc1ccc2c(c1)C(=O)c1c-2n(CCCCl)c(=O)c2cc(N)ccc12
GI50 (T-47D breast): > 100 µM
TGI (T-47D breast): > 100 µM
GI50 (SNB-19 CNS): > 100 µM
TGI (SNB-19 CNS): > 100 µM
GI50 (HL-60(TB) leukemia): > 41.3 µM
TGI (HL-60(TB) leukemia): > 59.1 µM
GI50 (ACHN renal): 98.4 µM
TGI (ACHN renal): > 100 µM
GI50 (M14 melanoma): > 100 µM
TGI (M14 melanoma): > 100 µM
GI50 (UACC-62 melanoma): > 100 µM
TGI (UACC-62 melanoma): > 100 µM
GI50 (DU-145 prostate): 56.9 µM
TGI (DU-145 prostate): > 100 µM
GI50 (MDA-MB-231 breast): 25.6 µM
TGI (MDA-MB-231 breast): > 95.7 µM

Cc1ccc2c(c1)C(O)(c1ccccc1)CCS2 (centres undefined)
TGI (T-47D breast): > 100 µM
TGI (SNB-19 CNS): > 100 µM
TGI (HL-60(TB) leukemia): 89.6 µM
TGI (ACHN renal): 62.6 µM
TGI (M14 melanoma): 66.9 µM
TGI (UACC-62 melanoma): 52.7 µM
TGI (DU-145 prostate): > 100 µM
TGI (MDA-MB-231 breast): 39.8 µM

Cc1cn(C2CC(O)C(COC(N)=O)O2)c(=O)[nH]c1=O (centres undefined)
TGI (T-47D breast): > 100 µM
TGI (SNB-19 CNS): > 100 µM
TGI (HL-60(TB) leukemia): > 100 µM
TGI (ACHN renal): > 100 µM
TGI (M14 melanoma): > 100 µM
TGI (MDA-N): > 100 µM
TGI (UACC-62 melanoma): > 100 µM
TGI (DU-145 prostate): > 100 µM
TGI (MDA-MB-231 breast): > 100 µM

CCOC(=O)CCSC1=CC(=O)c2nc3ccccc3c3ccnc1c23
GI50 (T-47D breast): 24.3 µM
TGI (T-47D breast): 76 µM
GI50 (SNB-19 CNS): 20.5 µM
TGI (SNB-19 CNS): 51.6 µM
GI50 (HL-60(TB) leukemia): 26.7 µM
TGI (HL-60(TB) leukemia): > 100 µM
GI50 (ACHN renal): 18.6 µM
TGI (ACHN renal): 42.5 µM
GI50 (M14 melanoma): 11.3 µM
TGI (M14 melanoma): 30.1 µM
GI50 (UACC-62 melanoma): 15.8 µM
TGI (UACC-62 melanoma): 31.4 µM
GI50 (DU-145 prostate): 16 µM
TGI (DU-145 prostate): 33.2 µM
GI50 (MDA-MB-231 breast): 16.7 µM
TGI (MDA-MB-231 breast): 41.6 µM

CC(=N/NC(N)=S)/C(C)=N/NC(N)=S
TGI (SNB-19 CNS): > 100 µM
TGI (HL-60(TB) leukemia): > 100 µM
TGI (ACHN renal): > 100 µM
TGI (M14 melanoma): > 100 µM
TGI (MDA-N): > 100 µM
TGI (UACC-62 melanoma): > 100 µM
TGI (DU-145 prostate): > 100 µM
TGI (MDA-MB-231 breast): > 100 µM

CCOC(=O)c1cc2c(n1Cc1cc(OC)cc(OC)c1)-c1oncc1CC2
GI50 (T-47D breast): 31.1 µM
TGI (T-47D breast): > 100 µM
GI50 (SNB-19 CNS): 0.544 µM
TGI (SNB-19 CNS): > 100 µM
GI50 (HL-60(TB) leukemia): 0.0634 µM
TGI (HL-60(TB) leukemia): 1.15 µM
GI50 (ACHN renal): 2.22 µM
TGI (ACHN renal): > 100 µM
GI50 (M14 melanoma): 0.163 µM
TGI (M14 melanoma): > 100 µM
GI50 (UACC-62 melanoma): 0.403 µM
TGI (UACC-62 melanoma): > 100 µM
GI50 (DU-145 prostate): 0.216 µM
TGI (DU-145 prostate): 25.7 µM
GI50 (MDA-MB-231 breast): 1.09 µM
TGI (MDA-MB-231 breast): > 95.8 µM

CC(C)(C)OC(=O)N1Cc2cc3ccccc3nc2C1CO (centres undefined)
GI50 (T-47D breast): > 100 µM
TGI (T-47D breast): > 100 µM
GI50 (SNB-19 CNS): > 100 µM
TGI (SNB-19 CNS): > 100 µM
GI50 (HL-60(TB) leukemia): > 100 µM
TGI (HL-60(TB) leukemia): > 100 µM
GI50 (ACHN renal): > 100 µM
TGI (ACHN renal): > 100 µM
GI50 (M14 melanoma): > 100 µM
TGI (M14 melanoma): > 100 µM
GI50 (UACC-62 melanoma): > 100 µM
TGI (UACC-62 melanoma): > 100 µM
GI50 (DU-145 prostate): > 100 µM
TGI (DU-145 prostate): > 100 µM
GI50 (MDA-MB-231 breast): > 100 µM
TGI (MDA-MB-231 breast): > 100 µM

NC(Cc1c[nH]c2cccc(F)c12)C(=O)O (centres undefined)
TGI (T-47D breast): > 4500 µM
GI50 (SNB-19 CNS): 1120 µM
TGI (SNB-19 CNS): > 4500 µM
TGI (HL-60(TB) leukemia): > 4500 µM
GI50 (ACHN renal): 679 µM
TGI (ACHN renal): > 4500 µM
GI50 (M14 melanoma): 59.9 µM and 590 µM
TGI (M14 melanoma): > 4500 µM
GI50 (UACC-62 melanoma): 582 µM
TGI (UACC-62 melanoma): 1990 µM
GI50 (DU-145 prostate): 32 µM and 297 µM
TGI (DU-145 prostate): > 4500 µM
GI50 (MDA-MB-231 breast): 545 µM
TGI (MDA-MB-231 breast): 2300 µM

CCSCCCC(=O)O
TGI (T-47D breast): > 100 µM
TGI (SNB-19 CNS): > 100 µM
TGI (HL-60(TB) leukemia): > 100 µM
TGI (ACHN renal): > 100 µM
TGI (M14 melanoma): > 100 µM
TGI (MDA-N): > 100 µM
TGI (UACC-62 melanoma): > 100 µM
TGI (DU-145 prostate): > 100 µM
TGI (MDA-MB-231 breast): > 100 µM

Nc1no[n+]([O-])c1-c1nnc2c(n1)-c1ccccc1C2=O
GI50 (T-47D breast): 1.91 µM
TGI (T-47D breast): 5.35 µM
GI50 (SNB-19 CNS): 4.88 µM
TGI (SNB-19 CNS): 16.7 µM
GI50 (HL-60(TB) leukemia): 2.13 µM
TGI (HL-60(TB) leukemia): 5.54 µM
GI50 (ACHN renal): 1.56 µM
TGI (ACHN renal): 3.1 µM
GI50 (M14 melanoma): 1.78 µM
TGI (M14 melanoma): 3.66 µM
GI50 (UACC-62 melanoma): 4.47 µM
TGI (UACC-62 melanoma): 15.7 µM
GI50 (DU-145 prostate): 1.74 µM
TGI (DU-145 prostate): 3.45 µM
GI50 (MDA-MB-231 breast): 2.89 µM
TGI (MDA-MB-231 breast): 9.4 µM

NCCCNc1nc2ccccc2c2c(=O)c3cc(F)cc(Cl)c3sc12
GI50 (T-47D breast): 1.4 µM
TGI (T-47D breast): 4.23 µM
GI50 (SNB-19 CNS): 1.77 µM
TGI (SNB-19 CNS): 3.33 µM
GI50 (HL-60(TB) leukemia): 2.45 µM
TGI (HL-60(TB) leukemia): 6.58 µM
GI50 (ACHN renal): 1.7 µM
TGI (ACHN renal): 3.07 µM
GI50 (M14 melanoma): 1.78 µM
TGI (M14 melanoma): 3.28 µM
GI50 (UACC-62 melanoma): 1.82 µM
TGI (UACC-62 melanoma): 3.52 µM
GI50 (DU-145 prostate): 1.72 µM
TGI (DU-145 prostate): 3.17 µM
GI50 (MDA-MB-231 breast): 1.58 µM
TGI (MDA-MB-231 breast): 3.07 µM

O=C(O)c1[nH]c2c([N+](=O)[O-])cc([N+](=O)[O-])cc2c1C(=O)O
TGI (T-47D breast): > 100 µM
TGI (SNB-19 CNS): > 100 µM
TGI (HL-60(TB) leukemia): > 100 µM
TGI (ACHN renal): > 100 µM
TGI (M14 melanoma): > 100 µM
TGI (MDA-N): 92.9 µM
TGI (UACC-62 melanoma): > 100 µM
TGI (DU-145 prostate): > 100 µM
TGI (MDA-MB-231 breast): > 100 µM

Oc1ccc(/C=N/NC(=S)Nc2cccnc2)nc1
TGI (T-47D breast): > 100 µM
TGI (SNB-19 CNS): > 100 µM
TGI (HL-60(TB) leukemia): 14.4 µM
TGI (ACHN renal): 32.3 µM
TGI (M14 melanoma): > 33.3 µM
TGI (MDA-N): > 100 µM
TGI (UACC-62 melanoma): 29.3 µM
TGI (DU-145 prostate): > 89.4 µM
TGI (MDA-MB-231 breast): > 31.6 µM

O=C(Nc1cc2cc([N+](=O)[O-])ccc2oc1=O)c1cccs1
TGI (T-47D breast): > 100 µM
TGI (SNB-19 CNS): > 100 µM
TGI (HL-60(TB) leukemia): 44.5 µM
TGI (ACHN renal): > 100 µM
TGI (M14 melanoma): > 100 µM
TGI (MDA-N): > 100 µM
TGI (DU-145 prostate): > 100 µM
TGI (MDA-MB-231 breast): > 100 µM

C/C(=N\NC(=S)N1CCN(c2ccccn2)CC1)c1cccc2cccnc12
TGI (T-47D breast): > 87.6 µM
TGI (SNB-19 CNS): > 100 µM
TGI (HL-60(TB) leukemia): 12.3 µM
TGI (ACHN renal): > 100 µM
TGI (M14 melanoma): > 47.4 µM
TGI (MDA-N): > 100 µM
TGI (UACC-62 melanoma): 27.8 µM
TGI (MDA-MB-231 breast): > 64.6 µM

CCN(CC)CCCC(C)Nc1ccnc(/C=C/c2ccc(Cl)cc2)c1 (centres undefined)
TGI (T-47D breast): 3.59 µM
TGI (SNB-19 CNS): 16.6 µM
TGI (HL-60(TB) leukemia): > 100 µM
TGI (ACHN renal): 8.68 µM
TGI (M14 melanoma): 2.74 µM
TGI (MDA-N): 3.62 µM
TGI (UACC-62 melanoma): 3.69 µM
TGI (DU-145 prostate): 17.6 µM
TGI (MDA-MB-231 breast): 3.19 µM

O=C(Nc1ccc(Cl)cc1)N1CCN(c2ccc3nncn3n2)CC1
GI50 (T-47D breast): 29.4 µM
TGI (T-47D breast): > 100 µM
GI50 (SNB-19 CNS): > 100 µM
TGI (SNB-19 CNS): > 100 µM
GI50 (HL-60(TB) leukemia): 29.8 µM
TGI (HL-60(TB) leukemia): > 100 µM
GI50 (ACHN renal): 50.6 µM
TGI (ACHN renal): > 100 µM
GI50 (M14 melanoma): 56.2 µM
TGI (M14 melanoma): > 100 µM
GI50 (UACC-62 melanoma): 21.7 µM
TGI (UACC-62 melanoma): > 100 µM
GI50 (DU-145 prostate): 49.8 µM
TGI (DU-145 prostate): > 100 µM
GI50 (MDA-MB-231 breast): 63.2 µM
TGI (MDA-MB-231 breast): > 100 µM
